≈ marks a conversion by molar mass, not a printed value. Calls of active or inactive are those of the source. The rule behind the calls is not given here.
Key:
[1] = biological target: Transient receptor potential cation channel subfamily V member 1 (Rattus norvegicus) (UniProt O35433); test: Antagonist activity against capsaicin-mediated activation of rat TRPV1 by FLIPR; type: functional
[2] = Half life in rat; type: ADME, organism-based; conditions: in vivo
[3] = Volume of distribution in guinea pig; type: ADME, organism-based, Cavia porcellus; conditions: in vivo, read-out: Vdss
[4] = Bioavailability in dog at 3 mg/kg, po; type: ADME, organism-based, Canis lupus familiaris; conditions: in vivo
[5] = Half life in guinea pig; type: ADME, organism-based, Cavia porcellus; conditions: in vivo
[6] = biological target: Transient receptor potential cation channel subfamily V member 1 (Cavia porcellus) (UniProt Q6R5A3); test: Activity against adjuvant-induced arthritis assessed as reversal of allodynia in guinea pig at 10 mg/kg, po; type: functional, organism-based; design: dose 10 mg/kg
Transient receptor potential cation channel subfamily V member 1 (Cavia porcellus), sequence (Q6R5A3 whole entry): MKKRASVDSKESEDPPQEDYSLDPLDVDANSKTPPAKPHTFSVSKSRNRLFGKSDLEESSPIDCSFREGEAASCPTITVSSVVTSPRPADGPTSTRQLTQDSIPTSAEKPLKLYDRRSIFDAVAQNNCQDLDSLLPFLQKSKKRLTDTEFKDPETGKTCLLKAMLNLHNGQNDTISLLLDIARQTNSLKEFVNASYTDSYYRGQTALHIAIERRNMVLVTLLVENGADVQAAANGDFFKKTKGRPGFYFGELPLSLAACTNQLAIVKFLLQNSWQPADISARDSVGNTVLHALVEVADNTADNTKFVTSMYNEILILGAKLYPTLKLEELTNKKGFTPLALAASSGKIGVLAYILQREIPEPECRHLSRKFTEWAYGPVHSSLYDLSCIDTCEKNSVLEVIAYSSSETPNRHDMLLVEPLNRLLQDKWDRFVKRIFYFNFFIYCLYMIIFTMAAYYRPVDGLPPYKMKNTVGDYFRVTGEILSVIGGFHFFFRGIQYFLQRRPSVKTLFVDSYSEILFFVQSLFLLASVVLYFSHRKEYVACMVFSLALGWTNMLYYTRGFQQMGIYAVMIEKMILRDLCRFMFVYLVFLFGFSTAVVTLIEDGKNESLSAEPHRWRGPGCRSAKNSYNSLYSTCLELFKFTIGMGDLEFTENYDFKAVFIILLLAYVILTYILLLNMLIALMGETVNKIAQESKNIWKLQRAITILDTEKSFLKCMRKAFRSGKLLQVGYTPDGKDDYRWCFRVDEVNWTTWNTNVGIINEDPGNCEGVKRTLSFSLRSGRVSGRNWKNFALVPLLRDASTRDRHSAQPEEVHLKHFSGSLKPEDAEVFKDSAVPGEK

[7] = Volume of distribution in rat; type: ADME, organism-based; conditions: in vivo, read-out: Vdss
[8] = Solubility in stimulated gastric fluid; type: physicochemical; conditions: simulated gastric fluid
[9] = Half life in dog; type: ADME, organism-based, Canis lupus familiaris; conditions: in vivo
[10] = biological target: Transient receptor potential cation channel subfamily V member 1 (Homo sapiens) (UniProt Q8NER1); test: Blockade of heat activated human TRPV1 at 1 uM; type: functional
Transient receptor potential cation channel subfamily V member 1 (Homo sapiens), sequence (Q8NER1 whole entry): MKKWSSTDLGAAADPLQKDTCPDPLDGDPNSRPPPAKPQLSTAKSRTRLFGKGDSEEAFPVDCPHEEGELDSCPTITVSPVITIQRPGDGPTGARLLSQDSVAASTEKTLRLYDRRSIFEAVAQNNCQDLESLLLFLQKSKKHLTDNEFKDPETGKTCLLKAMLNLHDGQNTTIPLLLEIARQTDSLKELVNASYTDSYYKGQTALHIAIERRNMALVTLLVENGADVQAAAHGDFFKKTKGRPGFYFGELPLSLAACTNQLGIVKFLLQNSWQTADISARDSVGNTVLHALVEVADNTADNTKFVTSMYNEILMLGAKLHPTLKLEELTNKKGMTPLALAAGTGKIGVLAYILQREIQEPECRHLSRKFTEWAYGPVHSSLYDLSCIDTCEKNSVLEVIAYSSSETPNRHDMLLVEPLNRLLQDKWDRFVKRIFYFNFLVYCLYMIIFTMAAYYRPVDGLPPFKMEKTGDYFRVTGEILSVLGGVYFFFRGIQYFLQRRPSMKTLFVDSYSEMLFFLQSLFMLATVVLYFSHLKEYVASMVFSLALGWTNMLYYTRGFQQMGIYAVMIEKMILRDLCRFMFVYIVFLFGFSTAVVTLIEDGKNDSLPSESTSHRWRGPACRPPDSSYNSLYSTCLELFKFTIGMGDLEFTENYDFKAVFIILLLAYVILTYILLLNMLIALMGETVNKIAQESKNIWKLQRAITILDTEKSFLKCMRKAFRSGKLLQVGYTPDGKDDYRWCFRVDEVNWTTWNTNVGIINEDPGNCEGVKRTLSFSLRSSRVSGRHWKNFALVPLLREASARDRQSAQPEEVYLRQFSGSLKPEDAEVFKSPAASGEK

[11] = Clearance in guinea pig; type: ADME, organism-based, Cavia porcellus; conditions: in vivo
[12] = Bioavailability in rat at 3 mg/kg, po; type: ADME, organism-based; conditions: in vivo
[13] = Clearance in dog; type: ADME, organism-based, Canis lupus familiaris; conditions: in vivo
[14] = Volume of distribution in dog; type: ADME, organism-based, Canis lupus familiaris; conditions: in vivo, read-out: Vdss
[15] = biological target: Transient receptor potential cation channel subfamily V member 1 (Rattus norvegicus) (UniProt O35433); test: Activity against capsaicin-induced secondary hyperalgesia assessed as reversal of allodynia in rat at 10 mg/kg, po after 2 hrs; type: functional, organism-based; design: dose 10 mg/kg
[16] = biological target: Transient receptor potential cation channel subfamily V member 1 (Homo sapiens) (UniProt Q8NER1); test: Inhibition of capsaicin-mediated activation of human TRPV1 in HEK293 cells at 1 uM by patch clamp method; type: functional, cell-based
[17] = Clearance in rat; type: ADME, organism-based; conditions: in vivo
[18] = organism: Canis familiaris; test: Intrinsic clearance in dog liver microsomes; type: ADME, Canis lupus familiaris, Microsome
[19] = biological target: Transient receptor potential cation channel subfamily V member 1 (Rattus norvegicus) (UniProt O35433); test: Activity against capsaicin-induced secondary hyperalgesia assessed as reversal of allodynia in rat at 30 mg/kg, po after 2 hrs; type: functional, organism-based; design: dose 30 mg/kg
[20] = Bioavailability in guinea pig at 1 mg/kg, po; type: ADME, organism-based, Cavia porcellus; conditions: in vivo
[21] = organism: Cavia porcellus; test: Intrinsic clearance in guinea pig liver microsomes; type: ADME, Microsome
[22] = biological target: Transient receptor potential cation channel subfamily V member 1 (Homo sapiens) (UniProt Q8NER1); test: Blockade of pH activated human TRPV1 at 1 uM; type: functional
[23] = biological target: Transient receptor potential cation channel subfamily V member 1 (Cavia porcellus) (UniProt Q6R5A3); test: Antagonist activity against capsaicin-mediated activation of guinea pig TRPV1 by FLIPR; type: functional
[24] = (§1) Intrinsic clearance in human liver microsomes; type: ADME, Microsome; conditions: liver microsomes
[25] = test system: Liver microsomes; test: as §1; type: ADME, Microsome; conditions: microsomes
[26] = biological target: Transient receptor potential cation channel subfamily V member 1 (Homo sapiens) (UniProt Q8NER1); test: Inhibition of heat-mediated activation of human TRPV1 in HEK293 cells at 1 uM by patch clamp method
[27] = Aqueous solubility of the compound; type: physicochemical

Transient receptor potential cation channel subfamily V member 1 (Rattus norvegicus), sequence (O35433 whole entry): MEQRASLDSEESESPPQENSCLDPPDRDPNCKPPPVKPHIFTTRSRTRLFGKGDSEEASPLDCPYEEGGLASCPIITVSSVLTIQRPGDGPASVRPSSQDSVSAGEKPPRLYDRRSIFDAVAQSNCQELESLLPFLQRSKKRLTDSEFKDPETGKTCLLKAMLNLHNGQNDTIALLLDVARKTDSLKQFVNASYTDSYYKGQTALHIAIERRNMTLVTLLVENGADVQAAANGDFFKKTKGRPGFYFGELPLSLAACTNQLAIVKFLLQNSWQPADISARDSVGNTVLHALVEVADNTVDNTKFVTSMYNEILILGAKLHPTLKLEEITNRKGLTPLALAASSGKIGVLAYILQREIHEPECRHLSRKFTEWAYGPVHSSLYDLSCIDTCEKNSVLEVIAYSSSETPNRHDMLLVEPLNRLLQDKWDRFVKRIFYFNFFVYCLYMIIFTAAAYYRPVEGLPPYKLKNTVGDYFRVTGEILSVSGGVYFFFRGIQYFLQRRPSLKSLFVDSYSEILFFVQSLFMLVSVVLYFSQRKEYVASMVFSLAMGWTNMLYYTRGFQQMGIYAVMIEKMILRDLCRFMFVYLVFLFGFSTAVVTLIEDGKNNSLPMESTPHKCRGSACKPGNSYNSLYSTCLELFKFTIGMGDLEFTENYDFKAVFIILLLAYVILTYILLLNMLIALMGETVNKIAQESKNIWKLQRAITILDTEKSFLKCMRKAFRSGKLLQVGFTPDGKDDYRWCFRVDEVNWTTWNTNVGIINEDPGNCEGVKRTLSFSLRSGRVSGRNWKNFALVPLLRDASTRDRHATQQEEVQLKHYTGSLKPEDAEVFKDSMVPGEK

**Q.** Which pKb [1] does the source give for `O=C(Nc1ccccc1Br)N[C@@H]1CCN(c2cc(C(F)(F)F)ccn2)C1` here?
**A.** 6.9

**Q.** Which half-life [2] does the source give for `O=C(Nc1ccccc1Br)N[C@@H]1CCN(c2ccc(C(F)(F)F)cn2)C1` [SB-705498] here?
**A.** 3.1 h

**Q.** And the Vd [3]?
**A.** 3.6 L/kg

**Q.** What about the bioavailability [4] of the same compound?
**A.** 42%

**Q.** What about the half-life [5] of the same compound?
**A.** 2.6 h

**Q.** And the Activity [6]?
**A.** 80%

**Q.** What about the Vd [7] of the same compound?
**A.** 0.9 L/kg

**Q.** What about the solubility [8] of the same compound?
**A.** 400 µg/mL (≈ 932 µM)

**Q.** And the half-life [9]?
**A.** 3.4 h

**Q.** And the Activity [10]?
**A.** 97%

**Q.** And the clearance [11]?
**A.** 34 mL/min/kg

**Q.** And the bioavailability [12]?
**A.** 86%

**Q.** What about the clearance [13] of the same compound?
**A.** 11 mL/min/kg

**Q.** And the Vd [14]?
**A.** 1.9 L/kg

**Q.** And the Activity [15]?
**A.** Active

**Q.** And the inhibition [16]?
**A.** 102%

**Q.** What about the clearance [17] of the same compound?
**A.** 4 mL/min/kg

**Q.** And the CL [18]?
**A.** 0.9 mL/min/g

**Q.** What about the Activity [19] of the same compound?
**A.** Active

**Q.** What about the bioavailability [20] of the same compound?
**A.** 39%

**Q.** What about the pKb [1] of the same compound?
**A.** 7.5

**Q.** What about the CL [21] of the same compound?
**A.** 4.2 mL/min/g

**Q.** What about the Activity [22] of the same compound?
**A.** 104%

**Q.** And the pKb [23]?
**A.** 7.3

**Q.** With `Cc1ccc2c(c1)CCCN2CCNC(=O)Nc1ccccc1Br` as the compound, how does the CLint scaled [24] read?
**A.** > 45 mL/min/kg

**Q.** What about the pKb [1] of the same compound?
**A.** 7.4

**Q.** With `O=C(Nc1ccccc1Br)N[C@@H]1CCN(c2ccccn2)C1` as the compound, how does the pKb [1] read?
**A.** < 6.6

**Q.** Which results are given for `CCN(CCNC(=O)Nc1ccccc1Br)c1cccc(C)c1`?
**A.** CLint scaled [24]: 41 mL/min/kg; pKb [1]: 7.8

**Q.** Which Activity [10] does the source give for `Cc1cccc(N2CC[C@@H](NC(=O)Nc3ccccc3Br)C2)c1` here?
**A.** Active

**Q.** What about the CL [25] of the same compound?
**A.** <= 4 ml/min/g

**Q.** What about the pKb [1] of the same compound?
**A.** 7.7

**Q.** What about the Activity [22] of the same compound?
**A.** Active

**Q.** What about the Activity [26] of the same compound?
**A.** Active

**Q.** What about the solubility [27] of the same compound?
**A.** < 100 µg/mL

**Q.** For `O=C(Nc1ccccc1Br)N[C@@H]1CCN(c2ccc(Cl)cn2)C1`, which pKb [1] is on record?
**A.** 7.3

**Q.** With `O=C(NCCN1CCc2ccccc21)Nc1ccccc1Br` as the compound, how does the pKb [1] read?
**A.** 6.8

**Q.** For `O=C(Nc1ccccc1Br)N[C@@H]1CCN(c2cccc(C(F)(F)F)n2)C1`, which pKb [1] is on record?
**A.** 7.2

**Q.** With `Cc1cccc2c1CCN2CCNC(=O)Nc1ccccc1Br` as the compound, how does the pKb [1] read?
**A.** 7.4

**Q.** Which CLint scaled [24] does the source give for `O=C(NCCN1CCc2cc(F)ccc21)Nc1ccccc1Br` here?
**A.** 19 mL/min/kg

**Q.** And the pKb [1]?
**A.** 7.1

**Q.** With `N#Cc1ccc(N2CC[C@@H](NC(=O)Nc3ccccc3Br)C2)nc1` as the compound, how does the pKb [1] read?
**A.** 6.7

**Q.** Which pKb [1] does the source give for `Cc1cccc(N2CC[C@H](NC(=O)Nc3ccccc3Br)C2)c1` here?
**A.** < 6.8

**Q.** With `Cc1ccc(N2CC[C@@H](NC(=O)Nc3ccccc3Br)C2)nc1` as the compound, how does the pKb [1] read?
**A.** < 6.7

**Q.** Which pKb [1] does the source give for `Cc1ccc2c(c1)CCN2CCNC(=O)Nc1ccccc1Br` here?
**A.** 7.3

**Q.** What does the source list for `O=C(Nc1ccccc1Br)N[C@@H]1CCN(c2cccc(F)c2)C1`?
**A.** CL [25]: <= 4 ml/min/g; pKb [1]: 7.8; solubility [27]: < 100 µg/mL

**Q.** With `Cc1ccc(N2CC[C@@H](NC(=O)Nc3ccccc3Br)C2)cc1F` as the compound, how does the CL [25] read?
**A.** <= 4 ml/min/g

**Q.** And the pKb [1]?
**A.** 8.3

**Q.** What about the solubility [27] of the same compound?
**A.** < 100 µg/mL

**Q.** For `O=C(Nc1ccccc1Br)N[C@@H]1CCN(c2ncccc2C(F)(F)F)C1`, which pKb [1] is on record?
**A.** 7.1

**Q.** Which pKb [1] does the source give for `O=C(Nc1ccccc1Br)N[C@@H]1CCN(c2ccc(Br)cn2)C1` here?
**A.** 7.2

**Q.** Which pKb [1] does the source give for `O=C(NCCN1CCc2c(F)cccc21)Nc1ccccc1Br` here?
**A.** 7.4

**Q.** Which CL [25] does the source give for `O=C(Nc1ccccc1Br)N[C@@H]1CCN(c2ccc(F)c(F)c2)C1` here?
**A.** <= 4 ml/min/g

**Q.** And the pKb [1]?
**A.** 8.1

**Q.** What about the solubility [27] of the same compound?
**A.** < 100 µg/mL
